Source: patent US9241489B2, “Plant growth regulating compounds” (Syngenta Participations AG, priority 2011, dated 2016)

## N#Cc1cnc(NC(=O)CCC(=O)O)cn1 [Compound A1, 4-[(5-cyanopyrazin-2-yl)amino]-4-oxo-butanoic acid]
  melting point: 201 to 202 °C
